From patent publication US9815796B2 (Merck Sharp & Dohme Corp., priority 2013, dated 2017)
Like-named read-outs stand apart in the source and are kept apart here.

Biological target: Rhesus PDE2A3 (Macaca mulatta, UniProt B3VTJ2)
Experiment: PDE2 fluorescence polarization (IMAP FP) inhibition assay, rhesus enzyme
Assay type: biochemical, rhesus macaque
Summary of the method: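 Rhesus PDE2A3 came from lysate of transiently transfected AD293 cells, diluted to give 20% substrate conversion. Substrate was 50 nM FAM-cAMP with 1 uM cGMP activator in Tris pH 7.2/MgCl2 buffer, run 60 min at room temperature over 10-point 3-fold dilutions in 1% DMSO. Read-out was IMAP fluorescence polarization (mP) after ≥1 h binding.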

[1] = Rhesus PDE2, Lab A, read-out: Rhesus PDE2 Ki (nM) - Lab A
[2] = Rhesus PDE2, Lab B, read-out: Rhesus PDE2 Ki (nM) - Lab B

Rhesus PDE2A3, sequence (B3VTJ2 1-941): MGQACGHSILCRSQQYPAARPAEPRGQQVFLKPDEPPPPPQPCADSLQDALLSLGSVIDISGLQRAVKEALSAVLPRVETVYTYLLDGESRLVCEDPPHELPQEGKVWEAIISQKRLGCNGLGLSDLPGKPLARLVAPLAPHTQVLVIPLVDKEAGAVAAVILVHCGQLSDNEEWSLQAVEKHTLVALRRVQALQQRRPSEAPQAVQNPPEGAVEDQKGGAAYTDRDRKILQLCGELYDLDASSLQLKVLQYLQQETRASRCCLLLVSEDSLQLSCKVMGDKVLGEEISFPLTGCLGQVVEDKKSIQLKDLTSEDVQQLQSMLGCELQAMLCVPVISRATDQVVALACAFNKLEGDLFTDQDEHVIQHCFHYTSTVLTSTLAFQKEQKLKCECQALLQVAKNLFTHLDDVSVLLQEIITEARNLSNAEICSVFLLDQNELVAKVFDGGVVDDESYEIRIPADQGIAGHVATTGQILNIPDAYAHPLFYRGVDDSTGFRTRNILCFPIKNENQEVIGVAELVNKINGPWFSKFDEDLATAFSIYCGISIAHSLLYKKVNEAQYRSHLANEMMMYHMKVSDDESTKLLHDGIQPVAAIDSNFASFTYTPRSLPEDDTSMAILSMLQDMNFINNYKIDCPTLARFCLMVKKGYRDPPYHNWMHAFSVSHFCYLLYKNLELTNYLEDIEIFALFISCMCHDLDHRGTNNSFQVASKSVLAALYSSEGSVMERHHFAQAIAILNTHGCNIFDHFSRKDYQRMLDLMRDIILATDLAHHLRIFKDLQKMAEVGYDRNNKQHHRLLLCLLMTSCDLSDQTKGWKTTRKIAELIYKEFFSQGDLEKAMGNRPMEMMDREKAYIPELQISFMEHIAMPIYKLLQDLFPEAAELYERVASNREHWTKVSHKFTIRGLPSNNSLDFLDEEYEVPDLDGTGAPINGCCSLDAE

Row | Structure (SMILES) | Ki [1] [nM] | Ki [2] [nM] | Rhesus PDE2 % inh. at 1 uM - Lab A (Rhesus PDE2, Lab A, at 1 uM) [% inh.]
1 | COCc1nc(C(=O)NC(CO)c2ccc(C(F)(F)F)cc2)cc(=O)[nH]1 (stereo not drawn) [Example 112, N-{2-hydroxy-1-[4-(trifluoromethyl)phenyl]ethyl}-2-(methoxymethyl)-6-oxo-1,6-dihydropyrimidine-4-carboxamide] | 1110 | – | –
2 | Cc1nc(C(=O)NC(C)c2ccc(C(C)(C)C(F)(F)F)cc2)cc(=O)[nH]1 (single isomer, unassigned) [Example 695, (R)- or (S)-2-methyl-6-oxo-N-(1-(4-(1,1,1-trifluoro-2-methylpropan-2-yl)phenyl)ethyl)-1,6-dihydropyrimidine-4-carboxamide] | – | 473 | –
3 | COc1ccc(C(C)(C)c2nc(C(=O)N[C@@H](c3ccc(C(F)(F)F)cc3)C(C)(C)C)cc(=O)[nH]2)cc1 [Example 456, N-{(1R)-2,2-dimethyl-1-[4-(trifluoromethyl)phenyl]propyl}-2-[1-(4-methoxyphenyl)-1-methylethyl]-6-oxo-1,6-dihydropyrimidine-4-carboxamide] | – | 98 | –
4 | CN(Cc1ccc(C(F)(F)F)cc1)C(=O)c1cc(=O)[nH]c(-c2ccccc2)n1 [Example 345, N-methyl-6-oxo-2-phenyl-N-[4-(trifluoromethyl)benzyl]-1,6-dihydropyrimidine-4-carboxamide] | 8340 | – | –
5 | C[C@H](O)[C@@H](NC(=O)c1cc(=O)[nH]c(-c2ncccn2)n1)c1ccc(C(F)(F)F)cc1 [Example 430, N-{(1S,2)S-2-hydroxy-1-[4-(trifluoromethyl)phenyl]propyl}-6-oxo-1,6-dihydro-2,2′-bipyrimidine-4-carboxamide] | – | > 2970 | –
6 | COc1cc(C(F)(F)F)ccc1[C@H](C)NC(=O)c1cc(=O)[nH]c(C2CC2)n1 [Example 223, 2-cyclopropyl-N-{(1S)-1-[2-methoxy-4-(trifluoromethyl)phenyl]ethyl}-6-oxo-1,6-dihydropyrimidine-4-carboxamide] | 1020 | – | –
7 | Cc1nc(C(=O)NC(C)c2ccc(C(C)(C)C)cc2)cc(=O)[nH]1 (single isomer, unassigned) [Example 310, (S)- or (R)-N-[1-(4-tert-butylphenyl)ethyl]-2-methyl-6-oxo-1,6-dihydropyrimidine-4-carboxamide] | 5650 | – | –
8 | COc1ccc2cc(C(C)NC(=O)c3cc(=O)[nH]c(C)n3)ccc2c1 (single isomer, unassigned) [Example 314, (S)- or (R)-N-[1-(6-methoxynaphthalen-2-yl)ethyl]-2-methyl-6-oxo-1,6-dihydropyrimidine-4-carboxamide] | 4740 | – | –
9 | C[C@H](NC(=O)c1cc(=O)[nH]c(-c2ccccc2)n1)c1cccc2ccccc12 [Example 362, N-[(1S)-1-naphthalen-1-ylethyl]-6-oxo-2-phenyl-1,6-dihydropyrimidine-4-carboxamide] | – | ~24700 | –
10 | C[C@H](c1ccc(C(F)(F)F)cc1)N(C)C(=O)c1cc(=O)[nH]c(C2CC2)n1 [Example 209] | 17400 | – | –
11 | O=C(NC1(c2ccc(C(F)(F)F)cc2)CCCC1)c1cc(=O)[nH]c(-c2ncccn2)n1 [Example 72, 6-oxo-N-{1-[4-(trifluoromethyl)phenyl]cyclopentyl}-1,6-dihydro-2,2′-bipyrimidine-4-carboxamide] | 333 | – | –
12 | Cc1nc(C(=O)NC(c2ccc(SC(F)(F)F)cc2)C(C)C)cc(=O)[nH]1 (stereo in doubt) [Example 615, 2-methyl-N-[(1S)-2-methyl-1-{4-[(trifluoromethyl)sulfanyl]phenyl}propyl]-6-oxo-1,6-dihydropyrimidine-4-carboxamide] | – | 441 | –
13 | C[C@@H](NC(=O)c1cc(=O)[nH]c(-c2ccccc2)n1)c1ccccc1 [Example 342, 6-oxo-2-phenyl-N-[(1R)-1-phenylethyl]-1,6-dihydropyrimidine-4-carboxamide] | ~605 | 963 | –
14 | Cc1nc(C(=O)NC(c2ccc(SC(F)(F)F)c(F)c2)C2(C)CC2)cc(=O)[nH]1 (single isomer, unassigned) [Example 703, (S)- or (R)-N-((3-fluoro-4-((trifluoromethyl)thio)phenyl)(1-methylcyclopropyl)methyl)-2-methyl-6-oxo-1,6-dihydropyrimidine-4-carboxamide] | – | > 2970 | –
15 | CC(NC(=O)c1cc(=O)[nH]c(C2CC2)n1)c1ncc(C(F)(F)F)cn1 (stereo not drawn) [Example 203, 2-cyclopropyl-6-oxo-N-{1-[5-(trifluoromethyl)pyrimidin-2-yl]ethyl}-1,6-dihydropyrimidine-4-carboxamide] | 4320 | – | –
16 | C[C@@H](NC(=O)c1cc(=O)[nH]c(-c2ccccc2)n1)c1ccc(O)cc1 [Example 339, N-[(1R)-1-(4-hydroxyphenyl)ethyl]-6-oxo-2-phenyl-1,6-dihydropyrimidine-4-carboxamide] | ~417 | 653 | –
17 | CC(C)(NC(=O)c1cc(=O)[nH]c(-c2ccccc2)n1)c1ccc(S(F)(F)(F)(F)F)cc1 [Example 679, N-{1-methyl-1-[4-(pentafluoro-λ^6-sulfanyl)phenyl]ethyl}-6-oxo-2-phenyl-1,6-dihydropyrimidine-4-carboxamide] | – | 90 | –
18 | C[C@@H](NC(=O)c1cc(=O)[nH]c(-c2ccccc2)n1)c1cccc2ccccc12 [Example 354, N-[(1R)-1-naphthalen-1-ylethyl]-6-oxo-2-phenyl-1,6-dihydropyrimidine-4-carboxamide] | > 1000 | 2800 | 42
19 | COc1cc(C(F)(F)F)ccc1[C@H](C)NC(=O)c1cc(=O)[nH]c(-c2ccccc2)n1 [Example 403, N-{(1S)-1-[2-methoxy-4-(trifluoromethyl)phenyl]ethyl}-6-oxo-2-phenyl-1,6-dihydropyrimidine-4-carboxamide] | – | 1910 | –
20 | Cc1nc(C(=O)NC(c2ccc(F)cc2)c2ccc(C(F)(F)F)cc2)cc(=O)[nH]1 (stereo not drawn) [Example 130, N-{(4-fluorophenyl)[4-(trifluoromethyl)phenyl]methyl}-2-methyl-6-oxo-1,6-dihydropyrimidine-4-carboxamide] | 715 | – | –
21 | CC(C)c1ccc(CCNC(=O)c2cc(=O)[nH]c(-c3ccccc3)n2)cc1 [Example 348, N-{2-[4-(1-methylethyl)phenyl]ethyl}-6-oxo-2-phenyl-1,6-dihydropyrimidine-4-carboxamide] | ~877 | 1500 | –
22 | CC(NC(=O)c1cc(=O)[nH]c(-c2ccccc2)n1)c1ccncc1 (stereo not drawn) [Example 358, 6-oxo-2-phenyl-N-(1-pyridin-4-ylethyl)-1,6-dihydropyrimidine-4-carboxamide] | 11600 | – | –
23 | CC(NC(=O)c1cc(=O)[nH]c(-c2ncccn2)n1)c1ccc(C(F)(F)F)cc1Cl (stereo not drawn) [Example 96, N-{1-[2-chloro-4-(trifluoromethyl)phenyl]ethyl}-6-oxo-1,6-dihydro-2,2′-bipyrimidine-4-carboxamide] | 1280 | – | –
24 | O=C(N[C@@H](c1ccc(C(F)(F)F)cc1)C1CC1)c1cc(=O)[nH]c(-c2ncccn2)n1 [Example 94, N-{(R)-cyclopropyl[4-(trifluoromethyl)phenyl]methyl}-6-oxo-1,6-dihydro-2,2′-bipyrimidine-4-carboxamide] | 20 | – | –
25 | Cc1nc(C(=O)NCc2ccc(C(F)(F)F)cc2Cl)cc(=O)[nH]1 [Example 24, N-[2-chloro-4-(trifluoromethyl)benzyl]-2-methyl-6-oxo-1,6-dihydropyrimidine-4-carboxamide] | 3630 | – | –
26 | Cc1nc(C(=O)NC(C)c2cccc(-c3ccc(F)cc3)c2)cc(=O)[nH]1 (stereo not drawn) [Example 267, N-[1-(4′-fluorobiphenyl-3-yl)ethyl]-2-methyl-6-oxo-1,6-dihydropyrimidine-4-carboxamide] | 8060 | – | –
27 | COC(=O)C(NC(=O)c1cc(=O)[nH]c(-c2ccccc2)n1)c1ccc(C(F)(F)F)cc1 (stereo not drawn) [Example 406, methyl {[(6-oxo-2-phenyl-1,6-dihydropyrimidin-4-yl)carbonyl]amino}[4-(trifluoromethyl)phenyl]acetate] | – | 226 | –
28 | COc1cc(CN(C)C(=O)c2cc(=O)[nH]c(C)n2)cc(OC)c1OC [Example 14, N,2-dimethyl-6-oxo-N-(3,4,5-trimethoxybenzyl)-1,6-dihydropyrimidine-4-carboxamide] | 1860 | – | –
